In patent US20230391752A1, “PYRROLIDINE-3-CARBOXAMIDE DERIVATIVES AND RELATED USES” (Chulalongkorn University, priority 2020, published 2023):

Key:
[1] = Pharmacokinetic study in rats; format: in vivo, male Sprague-Dawley rats; conditions: for F (%) Rat: PO 0.3 to 2.0 mg/kg; for clearance / Vd / half-life: male, Sprague-Dawley, plasma, rat; for clearance: read-out: CL (mL/min/kg) Rat; for Vd: read-out: Vd,ss (L/kg) Rat; for half-life: read-out: t1/2 (h) Rat (converted)
Description: (§1) Test compounds were administered to male Sprague-Dawley rats and male Beagle dogs by oral (PO) and intravenous (TV) administration. For TV dosing, test compounds were dosed at 0.2 to 0.5 mg/kg using a formulation of 10% dimethyl sulfoxide in 20% hydroxypropyl beta-cyclodextrin solution via IV bolus. For PO dosing, test compounds were dosed at 0.3 to 2.0 mg/kg using a formulation of 40% polyethylene glycol 400 in water via oral gavage. Blood samples were collected at pre-dose and various time points up to 24 hours post-dose, and centrifuged to obtain plasma samples. The plasma concentrations of test compounds were quantified by LC-MS/MS methods. The relevant pharmacokinetic parameters (Table D) were calculated via non-compartmental analysis using WinNonlin (Phoenix™, version 8.3).

HBV [2] = test: Effect on intrahepatic HBV DNA levels in HepG2.2.15 cells (EC50); format: cell-based; conditions: Hepatitis B virus, 144 h, 6 days, intrahepatic HBV DNA by qPCR, read-out: Anti-HBV DNA (EC50)
Description: HepG2.2.15 cells were treated with compounds, at various concentrations in 10% FCS containing medium, at 37° C. for three days. After that the medium was removed and fresh medium containing the compound was added to the cells for another 3 days. After 6 days of treatment, intrahepatic HBV DNA from cell lysates were isolated. Then qPCR reaction of DNA was performed to measure total HBV DNA levels using specific primer set. The fifty-percent effective concentrations (EC50) for HBV DNA inhibition, relative to no drug controls, was determined using nonlinear fitting curve model. EC50 ranges for HBV DNA inhibition were as follows: A>0.3 μM, B=0.05-0.3 μM, C<0.05 μM (Table B).

[3] = Cytotoxicity (MTT) in HepG2.2.15 cells; format: cell-based; conditions: human, 6 days treatment, read-out: HepG2.1.15 cytotoxicity (CC50)
Description: HepG2.2.15 cells were seeded onto 96-well culture plate and allowed to adhere for 24 hours. The cells were treated with various concentrations of the compounds for 6 days. After treatment, the culture media were discarded and further incubated with serum-free media containing […] of 3-(4,5-dimethylthiazol-2-yl)-2,5-diphenyl tetrazolium bromide (MTT) for 2 hour. The resulting formazan crystals were completely dissolved in dimethyl sulfoxide (DMSO), and then measured absorbance at 570 nm using microplate reader. The concentrations of compounds producing 50% cell death (CC50) were determined from a fitting of concentration-response curve (% cell viability versus concentration) to a four-parameter equation.

HBV [4] = test: In vitro anti-HBV activity in HepG2.2.15 cell line (intracellular HBV DNA by qPCR at 1 μM); format: cell-based; conditions: Hepatitis B virus, 144 h; HepG2.2.15 cells, 1 μM compound, 6 days, intracellular HBV DNA as percentage compared to vehicle control (0.5% DMSO)
Outline: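 Intracellular HBV DNA was quantified by qPCR and given as percent of vehicle (0.5% DMSO), grouped into letter ranges. Stably transfected HepG2.2.15 cells had 6 days of exposure to 1 μM compound, with medium and compound renewed after day 3.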

HBV core protein (Cp149) = molecular target: T1, HBV core protein (Cp149) (Hepatitis B virus genotype D subtype ayw, UniProt P03146); test: HBV capsid assembly by size exclusion chromatography (SEC); format: biochemical; conditions: 50 μM compound, 15 μM Cp149, 16 hours at 21° C.
T1 construct: HBV core C-terminally truncated protein (HBV Cp149); made in house

[5] = Pharmacokinetic study in dogs; format: in vivo, male Beagle dogs
Description: as §1

T1 sequence (P03146 1-149): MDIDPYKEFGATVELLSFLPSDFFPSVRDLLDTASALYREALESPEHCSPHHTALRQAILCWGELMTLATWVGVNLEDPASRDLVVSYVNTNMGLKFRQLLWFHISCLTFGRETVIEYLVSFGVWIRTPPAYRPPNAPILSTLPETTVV

Row | Structure (SMILES) | F (%) Rat [1] [%] | clearance ([1]; IV 0.2 to 0.5 mg/kg) [mL/min/kg] | Vd ([1]; IV 0.2 to 0.5 mg/kg) [L/kg] | half-life [1] [h] | EC50 (HBV [2]) [µM] | CC50 at 6 days [3] [µM] | activity at 1 µM (HBV [4]) [%] | Size of induced capsids based on SEC retention times (HBV core protein (Cp149)) | F (%) Dog ([5]; PO 0.3 to 2.0 mg/kg) [%] | half-life ([5]; male, Beagle, dog, plasma, read-out: t1/2 (h) Dog (converted)) [h] | clearance ([5]; male, Beagle, plasma, dog, IV 0.2 to 0.5 mg/kg, read-out: CL (mL/min/kg) Dog) [mL/min/kg] | Vd ([5]; male, Beagle, plasma, dog, IV 0.2 to 0.5 mg/kg, read-out: Vd,ss (L/kg) Dog) [L/kg] | CL (mL/min/kg) Rat ([1]; IV 0.2 to 0.5 mg/kg) [mL/min/kg]
1 | C[C@H]1[C@@H](C(=O)Nc2ccc(F)c(C#N)c2)CCN1C(=O)c1ccc(C2CC2)[nH]1 [Example 74, (2S,3S)—N-(3-cyano-4-fluorophenyl)-1-(5-cyclopropyl-1H-pyrrole-2-carbonyl)-2-methylpyrrolidine-3-carboxamide] | ~100 | 3 | 0.72 | 3.4 | 0.05 to 0.3 | 10 to 25 | < 45 | induced capsids similar in size to NVR 3-778 | – | – | – | – | –
2 | C[C@H]1[C@@H](C(=O)Nc2cc(F)c(F)c(F)c2)CCN1C(=O)c1ccc(-c2ccnnc2)[nH]1 [Example 83, (2S,3S)-2-methyl-1-(5-(pyridazin-4-yl)-1H-pyrrole-2-carbonyl)-N-(3,4,5-trifluorophenyl)pyrrolidine-3-carboxamide] | 82 | 0.3 | 0.13 | 5.5 | < 0.05 | > 25 | < 45 | induced capsids similar in size to NVR 3-778 | – | – | – | – | –
3 | Cc1ncnc(C)c1-c1ccc(C(=O)N2CC[C@H](C(=O)Nc3cc(F)c(F)c(F)c3)C2)[nH]1 [Example 85, (S)-1-(5-(4,6-dimethylpyrimidin-5-yl)-1H-pyrrole-2-carbonyl)-N-(3,4,5-trifluorophenyl) pyrrolidine-3-carboxamide] | – | – | 2.88 | 3.6 | < 0.05 | 10 to 25 | < 45 | induced capsids similar in size to NVR 3-778 | ~100 | 6.2 | 4.4 | 1.64 | 15.2
4 | Cc1ncnc(C)c1-c1ccc(C(=O)N2CC[C@H](C(=O)Nc3ccc(F)c(Cl)c3)C2)[nH]1 [Example 99, (S)—N-(3-chloro-4-fluorophenyl)-1-(5-(4,6-dimethylpyrimidin-5-yl)-1H-pyrrole-2-carbonyl) pyrrolidine-3-carboxamide] | 36 | 38.4 | 2.34 | 1 | < 0.05 | 10 to 25 | < 45 | induced capsids similar in size to NVR 3-778 | – | – | – | – | –
5 | Cc1ncnc(C)c1-c1ccc(C(=O)N2CC[C@H](C(=O)Nc3cc(F)c(F)c(F)c3)[C@@H]2C)[nH]1 [Example 111, (2S,3S)-1-(5-(4,6-dimethylpyrimidin-5-yl)-1H-pyrrole-2-carbonyl)-2-methyl-N-(3,4,5-trifluorophenyl)pyrrolidine-3-carboxamide] | – | – | – | – | < 0.05 | < 10 | < 45 | induced capsids similar in size to NVR 3-778 | – | – | – | – | –
6 | Cc1[nH]nc(C(F)(F)F)c1-c1ccc(C(=O)N2CC[C@H](C(=O)Nc3ccc(F)c(C#N)c3)[C@@H]2C)[nH]1 [Example 113, (2S,3S)—N-(3-cyano-4-fluorophenyl)-2-methyl-1-(5-(5-methyl-3-(trifluoromethyl)-1H-pyrazol-4-yl)-1H-pyrrole-2-carbonyl)pyrrolidine-3-carboxamide] | – | – | – | – | < 0.05 | 10 to 25 | < 45 | induced capsids similar in size to NVR 3-778 | – | – | – | – | –
7 | Cc1cc(NC(=O)[C@H]2CCN(C(=O)c3ccc(-c4c(C(F)(F)F)n[nH]c4C)[nH]3)C2)ccc1F [Example 114] | – | – | – | – | < 0.05 | 10 to 25 | < 45 | induced capsids similar in size to NVR 3-778 | – | – | – | – | –
8 | Cc1cnnc(C)c1-c1ccc(C(=O)N2CC[C@H](C(=O)Nc3ccc(F)c(F)c3)C2)[nH]1 [Example 115, (S)—N-(3,4-difluorophenyl)-1-(5-(3,5-dimethylpyridazin-4-yl)-1H-pyrrole-2-carbonyl)pyrrolidine-3-carboxamide] | – | – | – | – | 0.05 to 0.3 | > 25 | < 45 | induced capsids similar in size to NVR 3-778 | – | – | – | – | –
9 | Cc1cc(NC(=O)[C@H]2CCN(C(=O)c3ccc(-c4c(C)cc[nH]c4=O)[nH]3)[C@H]2C)ccc1F [Example 120, (2S,3S)—N-(4-fluoro-3-methylphenyl)-2-methyl-1-(5-(4-methyl-2-oxo-1,2-dihydropyridin-3-yl)-1H-pyrrole-2-carbonyl)pyrrolidine-3-carboxamide] | – | – | – | – | 0.05 to 0.3 | > 25 | < 45 | induced capsids similar in size to NVR 3-778 | – | – | – | – | –
10 | Cc1cc2[nH]ncc2cc1-c1ccc(C(=O)N2CC[C@H](C(=O)Nc3cc(F)c(F)c(F)c3)C2)[nH]1 [Example 122, (S)-1-(5-(6-methyl-1H-indazol-5-yl)-1H-pyrrole-2-carbonyl)-N-(3,4,5-trifluorophenyl) pyrrolidine-3-carboxamide] | – | – | – | – | 0.05 to 0.3 | 10 to 25 | < 45 | induced capsids similar in size to NVR 3-778 | – | – | – | – | –
11 | Cc1cc2[nH]ncc2cc1-c1ccc(C(=O)N2CC[C@H](C(=O)Nc3ccc(F)c(C#N)c3)C2)[nH]1 [Example 123, (S)—N-(3-cyano-4-fluorophenyl)-1-(5-(6-methyl-1H-indazol-5-yl)-1H-pyrrole-2-carbonyl) pyrrolidine-3-carboxamide] | – | – | – | – | 0.05 to 0.3 | 10 to 25 | < 45 | induced capsids similar in size to NVR 3-778 | – | – | – | – | –
12 | Cc1cc(NC(=O)[C@H]2CCN(C(=O)c3ccc(-c4c(C)cn[nH]c4=O)[nH]3)[C@H]2C)ccc1F [Example 125, (2S,3S)—N-(4-fluoro-3-methylphenyl)-2-methyl-1-(5-(5-methyl-3-oxo-2,3-dihydropyridazin-4-yl)-1H-pyrrole-2-carbonyl)pyrrolidine-3-carboxamide] | – | – | – | – | < 0.05 | > 25 | < 45 | induced capsids similar in size to NVR 3-778 | – | – | – | – | –
13 | Cc1c(-c2ccc(C(=O)N3CC[C@H](C(=O)Nc4cc(F)c(F)c(F)c4)C3)[nH]2)ccc2[nH]ncc12 [Example 128, (S)-1-(5-(4-methyl-1H-indazol-5-yl)-1H-pyrrole-2-carbonyl)-N-(3,4,5-trifluorophenyl) pyrrolidine-3-carboxamide] | – | – | – | – | 0.05 to 0.3 | 10 to 25 | < 45 | induced capsids similar in size to NVR 3-778 | – | – | – | – | –
14 | Cc1ncnc(C)c1-c1ccc2c(Cl)c(C(=O)N3CC[C@H](C(=O)Nc4ccc(F)c(C#N)c4)[C@@H]3C)[nH]c2c1 [Example 138, (2S,3S)-1-(3-chloro-6-(4,6-dimethylpyrimidin-5-yl)-1H-indole-2-carbonyl)-N-(3-cyano-4-fluorophenyl)-2-methylpyrrolidine-3-carboxamide] | – | – | – | – | 0.05 to 0.3 | 10 to 25 | < 45 | capsid retention times between BAY 41-4109 and NVR 3-778 | – | – | – | – | –
15 | Cc1cc(NC(=O)[C@H]2CCN(C(=O)c3ccc(-c4cccnc4C#N)[nH]3)C2)ccc1F [Example 150, (S)-1-(5-(2-cyanopyridin-3-yl)-1H-pyrrole-2-carbonyl)-N-(4-fluoro-3-methylphenyl)pyrrolidine-3-carboxamide] | – | – | – | – | 0.05 to 0.3 | > 25 | < 45 | induced capsids similar in size to NVR 3-778 | – | – | – | – | –
